Like-named read-outs stand apart in the source and are kept apart here.
Tests used:
[1] = LogP HPLC
[2] = molecular target: T1, peripheral benzodiazepine binding site (Rattus norvegicus, UniProt P16257); assay: In vitro binding, [3H]-PK11195, kidney membrane preparation; conditions: [3H]-PK11195 (2 nM), 4° C., 1 h
T1 construct: diluted kidney membrane preparation (200 μg); from tissue; host or cells: kidney membrane preparation
Procedure: Non-specific binding was determined with PK11195 (10 μM).
(§1) Non-specific binding was determined with Flumazenil (20 μM). In both cases, incubations were terminated by rapid filtration through Whatman GF/B glass fibre. Filters were immediately washed 3 times with 5 mL ice-cold 50 mM Tris/HCl at pH 7.4. Filters were counted in a β-scintillation counter (Packard) to measure the amount of bound radioactivity. The IC50 of the compounds for the peripheral benzodiazepine binding site and the central benzodiazepine receptor were calculated using Kell 6 software.

[3] = molecular target: central benzodiazepine receptors; assay: In vitro binding, [3H]-Flumazenil, brain cortex membrane preparation; conditions: for IC50: [3H]-Flumazenil (2 nM), 25° C., 45 min, read-out: CBR IC50
Procedure: as §1

[4] = molecular target: T2, peripheral benzodiazepine receptors (Rattus norvegicus, UniProt P16257); assay: In vivo blocking / competition of tracer uptake by pre-treatment with PBR and CBR ligands; conditions: rats
T2 construct: high uptake in the tissues which have known PBR sites; from tissue; host or cells: organs of living SD rats (brain and peripheral tissues), in vivo
Procedure: The criteria for significance were **p<0.01 (highly significant) and *p<0.05 (significant). No stars implies not statistical difference from normals or controls.
The biodistribution of PBR132* was undertaken in SD rats and analysis up to 4 h p.i. in the brain and peripheral tissues was performed. The specificity and selectivity of the tracer were assessed by pre-treatment with PBR and Central benzodiazepine receptor (CBR) specific ligands (1 mg/kg) 5 min prior to injection of PBR132*.
The biodistribution of PBR 147* was performed in SD rats and brain and peripheral tissues were analysised at 15, 30 min, 1, and 4 h p.i. The specificity and selectivity of the tracer was assessed by pre-treatment of the animals with the PBR ligands PK11195 and Ro 5-4864 and with Flumazenil for CBR at 1 mg/kg 5 min prior to injection of PBR 147*
The biodistribution of PBR102* and PBR111* were performed in SD rats and brain and peripheral tissues analysed at 15, 30 min, 1, and 4 h p.i. The specificity and selectivity of the tracers were assessed by pre-treatment with the PBR ligands PK11195 and Ro 5-4864 and with Flumazenil for CBR at 1 mg/kg 5 min prior to injection of the corresponding tracers.
The specificity and selectivity of the tracers were assessed by pre-treatment with the PBR ligands PK11195 and Ro 5-4864 and with Flumazenil for CBR at 1 mg/kg 5 min prior to injection of the corresponding tracers.

[5] = Biodistribution of 18F-labelled tracers in rats; assay type: in vivo; conditions: SD rats; for Biodistribution: Bone / Biodistribution: Kidney / Biodistribution: Olfactory bulbs / Biodistribution: Adrenals: decay correction not stated
In short: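 Sprague-Dawley rats received 18F tracer, and brain and peripheral tissues were analysed at 15 and 30 min and 1 and 4 h post-injection. For specificity, rats were pretreated 5 min beforehand with PK11195 or Ro 5-4864 (PBR) or flumazenil (CBR), each at 1 mg/kg.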

Compound: CC(C)(C)c1ccc(-c2nc3ccc(F)nn3c2CNC(=O)c2ccccc2)cc1 [PBR 139, N-((2-(4-tert-butylphenyl)-6-fluoroimidazo[1,2-b]pyridazin-3-yl)methyl)benzamide]
- chromatographic logP [1]: 4.23 ± 0.13
- IC50 ([2]; read-out: PBR IC50): 800 nM
- IC50 [3]: 2.62 µM

Compound: CN(C(=O)Cc1c(-c2ccc(OCCF)cc2)nc2c(Cl)cc(Cl)cn12)c1ccccc1 [PBR 143, 2-(2-(4-(2-fluoroethoxy)phenyl)-6,8-dichloroimidazo[1,2-a]pyridin-3-yl)-N-methyl-N-phenylacetamide]
- chromatographic logP [1]: 3.85 ± 0.12
- IC50 ([2]; PBR IC50 (nM)): 6.4 nM
- CBR, % @ 10^−5M ([3]; @ 10^−5M, [3H]-Flumazenil): 50% @ 10^−5M

Compound: CN(C(=O)Cc1c(-c2ccc(OCCCF)cc2)nc2c(Cl)cc(Cl)cn12)c1ccccc1 [PBR 147, 2-(2-(4-(3-fluoropropoxy)phenyl)-6,8-dichloroimidazo[1,2-a]pyridin-3-yl)-N-methyl-N-phenylacetamide]
- Tracer uptake after pre-treatment with PK 11195 ([4]; PK 11195 1 mg/kg 5 min prior to tracer, PBR-expressing tissues (brain/peripheral organs, adrenals apart)): decreased
- Tracer uptake in the adrenals after pre-treatment with PK 11195 ([4]; PK 11195 1 mg/kg 5 min prior to tracer, adrenals): increase
- Tracer uptake after pre-treatment with Ro 5-4864 ([4]; Ro 5-4864 1 mg/kg 5 min prior to tracer, PBR-expressing tissues (brain/peripheral organs, adrenals apart)): decreased
- Tracer uptake in the adrenals after pre-treatment with Ro 5-4864 ([4]; Ro 5-4864 1 mg/kg 5 min prior to tracer, adrenals): increase
- Tracer uptake after pre-treatment with flumazenil (central benzodiazepine ligand) ([4]; flumazenil 1 mg/kg 5 min prior to tracer, brain or peripheral organs): no effect
- chromatographic logP [1]: 4.31 ± 0.13
- IC50 ([2]; PBR IC50 (nM)): 7.4 nM
- IC50 [3]: 4.09 µM
- Biodistribution: Bone ([5]; 15 min): 1 % ID/g
- Biodistribution: Kidney ([5]; 15 min): 5 % ID/g
- Biodistribution: Olfactory bulbs ([5]; 15 min): 0.66 % ID/g
- Heart uptake maintained throughout the experiment ([5]; 15 min to 4 h): 7%
- Biodistribution: Adrenals ([5]; 30 min): 9 % ID/g
- Biodistribution: Adrenals ([5]; 4 hours): 11 % ID/g
- Biodistribution: Bone ([5]; 4 hours): 2.9 % ID/g
- Biodistribution: Kidney ([5]; 4 hours): 3.6 % ID/g
- Biodistribution: Olfactory bulbs ([5]; 4 hours): 0.26 % ID/g
- Blood activity level / concentration in the blood over the 4 h study period ([5]; throughout 15 min to 4 h): significantly lower

Compound: CN(C(=O)Cc1c(-c2ccc(OCCF)cc2)nc2ccc(Cl)cn12)c1ccccc1 [PBR 149, 2-(2-(4-(2-fluoroethoxy)phenyl)-6-chloroimidazo[1,2-a]pyridin-3-yl)-N-methyl-N-phenylacetamide]
- chromatographic logP [1]: 3.57 ± 0.11
- IC50 ([2]; PBR IC50 (nM)): 4.7 nM
- IC50 [3]: 0.357 µM

Source: patent publication US20100209345A1, “Fluorinated Ligands for Targeting Peripheral Benzodiazepine Receptors” (Australian Nuclear Science & Technology Organisation, priority 2006, published 2010)
